{"source": "patent US12636284B2", "about": "“Compositions for use in the prevention and/or treatment of intellectual disability and neurodegenerative diseases in a subject with down syndrome” (UNIVERSITA' DEGLI STUDI DI ROMA “LA SAPIENZA”, priority 2021, dated 2026)", "type_in_all_cases": "in vivo, mouse", "key": {"Ts2Cje mice": {"system": "Ts2Cje mice", "test": "Novel object recognition (NOR) cognitive test after intranasal treatment", "conditions": "Ts2Cje mice 9 months of age; sitagliptin 5 mM intra-nasally, 10 μL/nostril, once a day for 21 days", "description": "Finally, animals were sacrificed using cervical dislocation. […] The Novel object recognition (NOR) test is a relatively fast and efficient means of testing different stages of learning and memory in mice. The test is based on a minimum of three sessions: a habituation session (Day 1), a training session (Day 2) and a test session (Day 3). Training simply involves visual exploration of two identical objects, while the test session involves replacing one of the previously explored objects with a new object. Since rodents have an innate preference for novelty, a rodent that remembers the familiar object will spend more time exploring the new object. […] In the habituation stage, each animal can freely explore the arena for 10 minutes (50 cm deep×30 cm wide×30 cm high) in the absence of objects. During the training stage, a single animal is placed in the arena containing two identical objects (two balls) for 10 min. In the testing stage, after 24 hours, the animal is brought back to the arena with two objects, one is the familiar object and the other is a new object (ball+lego). […] In the analysis stage, the discrimination index (DI) and preference index (PI) are evaluated. The discrimination index (DI) allows calculation of the animal's ability to discriminate between new (TN) and familiar (TF) objects [DI=(TN−TF)/(TN+TF)]. […]"}, "[1]": {"test": "Glucose tolerance test (GTT) at end of treatment", "conditions": "Ts2Cje mice; sitagliptin 5 mM intranasal, 21 days; 6 h fasting, i.p. glucose 10%", "method": "Finally, animals were sacrificed using cervical dislocation.\nFurthermore, mice were measured at the beginning and at the end of the treatment to evaluate the length in centimeters (cm). For calculating the body mass surface, the DuBois equation was used: body surface area (m^2)=0.007184×weight ([…])×height ([…]). The body mass index was calculated as the ratio between weight and BSA (gr/m^2). At the end of the treatment, the glucose tolerance test (GTT) was carried out on the four experimental groups. After a fasting period of 6 hours, the animals' basal blood glucose was assessed with a small blood sample from the tail (T0). Subsequently, the same animals were treated with a glucose solution (10%, intraperitoneal injection) and blood glucose was measured with a glucometer (lineD ORO, Bioseven) after 30-60-90-120 minutes."}, "[2]": {"system": "spontaneous neurotransmitter release in Eu mice", "test": "Patch-clamp electrophysiology, CA1 neurons of hippocampal sections, euploid mice", "conditions": "after 21 days intranasal treatment", "description": "The brain sections containing the hippocampus were obtained from mice belonging to the four experimental groups (Eu Veh, Eu SITA, Ts2 Veh and Ts2 SITA) at 9 months of age after being euthanized by an overdose of isofluorane. Brains were quickly removed and placed in an ice-cold cutting solution containing the following (in mM): 124 NaCl, 3.2 KCl, 1 NaH2PO4, 2 MgCl2, 1 CaCl2), 26 NaHCO3, 10 glucose, 2 Na-pyruvate and 0.6 ascorbic acid, pH 7.4, 95% O2/5% CO2. The brain sections containing the hippocampus ([…]) were cut using a vibratome (VT1000S; Leica Microsystems) and immediately transferred to an incubation chamber filled with ACSF containing the following (in mM): 124 NaCl, 3.2 KCl, 1 NaH2PO4, 1 MgCl2, 2 CaCl2, 26 NaHCO3 and 10 glucose, pH 7.4, 95% O2/5% CO2. Brain sections were allowed to recover at 32° C. for 1 hour before being equilibrated to room temperature. For electrophysiological recordings, brain sections were transferred to a recording chamber constantly perfused with heated ACSF (32° C.) and bubbled with 95% O2/5% CO2. Subsequently, the slices were used for electrophysiological recordings. All electrophysiological recordings were performed using the patch-clamp technique in the whole-cell configuration. […] Membrane capacity and resistance were assessed in the same neurons. […]"}, "[3]": {"system": "oxidative stress levels (3-NT, 4-HNE)", "test": "Slot blot of oxidative stress markers 3-NT and 4-HNE in hippocampus", "method": "The samples (250 μl per well) were loaded into the wells of the slot-blot apparatus and transferred to a nitrocellulose membrane. The membrane was blocked for 2 h with a 3% solution of bovine serum albumin in T-TBS, and incubated with a primary anti-HNE polyclonal antibody (1:3000; HNE, NOVUS, #NB100-63093) or anti-3-NT (1:1000; Sigma Aldrich, #SAB52000009), for 2 hours at room temperature. The membrane was washed with T-TBS and incubated with alkaline phosphatase conjugated anti-rabbit or anti-mouse secondary antibody (1:5000, Sigma Aldrich) for 1 hour at room temperature. […] Finally, the results obtained were analyzed using the ImageLab program (Bio-rad, Hercules, CA, USA)."}}}
{"smiles": "N[C@@H](CC(=O)N1CCn2c(nnc2C(F)(F)F)C1)Cc1cc(F)c(F)cc1F", "note": "[sitagliptin, (R)-4-oxo-4-[3-(trifluoromethyl)-5,6-dihydro[1,2,4]triazole[4,3-a]pyrazin-7(8H)-yl]-1-(2,4,5-trifluorophenyl)butan-2-amine]", "values": [{"measurement": "cognitive performance, novel object recognition (NOR)", "setting": "Ts2Cje mice", "result": "marked improvement in cognitive performance"}, {"measurement": "changes in glucose metabolism indices (GTT)", "setting": "[1]", "result": "no phenotypic or morphometric changes or changes in glucose metabolism indices"}, {"measurement": "frequency and extent of spontaneous release of neurotransmitters", "setting": "[2]", "result": "no effect"}, {"measurement": "oxidative stress levels (3-NT, 4-HNE)", "setting": "[3]", "result": "reduction"}]}
